Data on 20 molecules can be found in US8916712B2, “Compositions and methods for cytoprotection” (Board of Trustees of the University of Arkansas, priority 2007, dated 2014).

Series [1] in a line: Trolox-Equivalent Antioxidant Capacity (TEAC) Assay. Conditions: for TEAC value, Ligand / TEAC value, Chelate: relative to Trolox standard assigned TEAC 1.00; for TEAC value, Chelate: zinc chelate of the named ligand.
Method: The antioxidant capacity of the zinc chelates was measured using the 6-hydroxy-2,5,7,8-tetramethylchroman-2-carboxylic acid (Trolox)-Equivalent Antioxidant Capacity (TEAC) Assay (Randox Laboratories Ltd., Antrim, United Kingdom). […] Antioxidant capacity was measured relative to the Trolox standard, which was assigned a TEAC value of 1.00.
In series [2] the test system is U937 human promonocytic cells. Particulars: for Radioprotection / cytoprotection: 0-100 μM added immediately after irradiation, PI assay 24 hr. As to the method: To determine the radioprotective effects of Zn^2+-chelates, U937 human promonocytic cells (ATCC number CRL-1593.2) were irradiated with or without Zn^2+-chelates added to the cells before or after irradiation, and radiation-induced cell death was measured 24 hr later using a propidium iodide (PI) assay. Propidium iodide was added to the cells at a final concentration of 4 μM and incubated for 15 minutes. Fluorescence (which indicates dead cells) was measured at 530/645 nm, and fluorescence was measured again after cell lysis with Triton-100 (1%, v/v) for 20 minutes (to give an estimate of total cells). The background (no cells) was subtracted, and the percent of the radiation-induced cell death was computed.
Different concentrations (0-100 μM) of a compound were added to the cells, which were then irradiated with 50 Gy.
Human U937 cells were irradiated in vitro with 50 Gy and the compounds were added at different concentrations (0-100 μM) immediately after irradiation. […] Cell death was measured 24 hr after irradiation using a PI assay (as detailed above).

Series [3] has as its target T1, rat serum DNase (predominantly rat DNase I) (Rattus norvegicus, UniProt P21704).
T1 construct: rat serum DNase (which is predominantly rat DNase I); from tissue; host or cells: rat serum
T1 sequence (P21704 23-284): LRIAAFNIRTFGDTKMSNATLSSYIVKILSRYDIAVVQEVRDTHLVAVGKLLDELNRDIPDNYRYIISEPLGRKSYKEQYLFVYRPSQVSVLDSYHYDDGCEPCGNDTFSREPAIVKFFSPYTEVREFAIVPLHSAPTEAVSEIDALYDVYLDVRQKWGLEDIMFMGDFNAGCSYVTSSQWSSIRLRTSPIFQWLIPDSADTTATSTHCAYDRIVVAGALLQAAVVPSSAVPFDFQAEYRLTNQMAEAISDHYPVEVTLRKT
Briefly: Plasmid incision assay of endonuclease activity, rat serum DNase. It counts as biochemical. Particulars: 0, 100 or 200 μM; 1 hour at 37° C.; pBR322 plasmid DNA. The method, then:
(§1) Endonuclease activity was measured using a plasmid incision assay. Activity was measured in 20 μl samples containing 1 μg pBR322 plasmid DNA, 10 mM Tris-HCl, pH 7.7, 25 μg/ml bovine serum albumin V fraction, 0.5 mM dithiothreitol, 5 mM MgCl2, 2 mM CaCl2, and 2 μl endonuclease. After 1 hour incubation at 37° C., the reaction was stopped by the addition 5 μl 1% SDS, 100 mM EDTA. Digested DNA was then subjected to a 1% agarose gel electrophoresis at 7 V/cm for 1 hour at room temperature. The gel was stained in 0.5 μg/ml ethidium bromide solution for 20 minutes and photographed under […]. Scanning densitometer Fotodyne (Fotodyne Inc., Hartland, Wis.) was utilized to quantify the relative amount of endonuclease-treated plasmid DNA present in a covalently closed circular DNA (cccDNA), open circular DNA (ocDNA) or linear DNA (linDNA). One endonuclease unit was defined as the amount of enzyme required to convert 1 μg cccDNA to ocDNA and linDNA.
(§2) Recombinant DNase I and rat serum DNase (which is predominantly rat DNase I) were incubated with 0, 100, or 200 μM of a Zn^2+-chelate (i.e., Zn-3,5-diisopropylsalicylic acid (DIPS), Zn-gluconate, or Zn-glycinate), a ligand (i.e., DIPS, gluconic acid, or glycine, as negative controls), or ZnCl2 (as positive control).

Series [4] has as its target T2, recombinant human DNase I (Homo sapiens, UniProt P24855).
T2 construct: Recombinant DNase I was produced using a similar approach; made in house
T2 sequence (P24855 23-282): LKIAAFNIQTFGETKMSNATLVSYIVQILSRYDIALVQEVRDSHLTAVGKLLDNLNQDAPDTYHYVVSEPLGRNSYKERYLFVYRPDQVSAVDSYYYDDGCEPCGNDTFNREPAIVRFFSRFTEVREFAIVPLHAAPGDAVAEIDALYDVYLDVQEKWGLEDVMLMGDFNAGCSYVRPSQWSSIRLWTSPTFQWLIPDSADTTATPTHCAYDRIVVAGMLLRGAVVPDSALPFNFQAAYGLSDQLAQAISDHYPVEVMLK
The series is described as follows: Plasmid incision assay of endonuclease activity, recombinant DNase I. Conditions: 0, 100 or 200 μM; 1 hour at 37° C.; pBR322 plasmid DNA. It counts as biochemical. As to the method: It was hypothesized that Zn^2+-chelates of aminothiols could provide radioprotection via their direct inhibition of nucleases and their antioxidant properties (i.e., prevent nuclease induction and release). To test this hypothesis, the activity of Zn(II) chelates to inhibit nucleases was assayed in vitro. For this, DNase I and EndoG were cloned, recombinant nuclease were expressed and purified for the in vitro assay. Human and mouse mature EndoG cDNA was reverse transcribed by RT-PCR from either normal human breast epithelial HMEC cells (Clonetics, Walkersville, Md.) or immortalized mouse proximal tubule epithelial TKPTS cells (obtained from D. Elsa Bello-Reuss, University of Texas Medical Branch, Galveston). The plasmid for mature human EndoG (A49-K297) with a C-terminal histidine tag and mouse mature EndoG (A45-K294) with a C-terminal histidine tag were constructed by inserting coding cDNA into pET29b(+) (Novagen, San Diego, Calif.) and expressed in Escherichia coli BL21 (DE3) cells using standard procedures. Expression of the recombinant proteins was induced by IPTG. The expressed recombinant protein was purified by HisTrap FF crude Kit (GE Healthcare, Uppsala, Sweden) and stored in 20 mM Tris-HCl, ph 7.5, 0.5 M NaCl, 2 mM 2-mercaptoethanol, and 50% glycerol.
as §1, §2

For another series, the system named is human U937 cells. The series is described as follows: Radiation injury of U937 cells (4 Gy), chelates added before or at times after irradiation. The series is classed as cell-based. Conditions: added 30 minutes before, immediately after, or up to 4 hours after irradiation. The method, then: FRTL-5 thyroid cells (ATCC, catalog #CRL8305) were irradiated with 450 Gy without or with Zn^2+-chelates added before and/or after irradiation. […] In another experiment, Zn^2+-chelates (i.e., Zn-captopril, Zn-NAC, Zn-penicillamine, or Zn-PTCA) were added to human U937 cells either 30 minutes before, immediately after, or up to 4 hours after irradiation (4 Gy).

Series [5] has as its system U937 cells. Briefly: Comet assay of U937 cells irradiated with 4 Gy. The series is classed as cell-based, human. Particulars: 10 μM, 24 hr after irradiation. As to the method: Considering that the LD50/30 (i.e., the dose that […] in 50% of the animals at 30 days) for mice is approximately 8 Gy (Bichay et al., 1986, Strahlenther Onkol, 162(6):391-399), the 50 Gy dose used to irradiate the cells in the previous example was rather high. Thus, the Zn^2+-chelates were tested for radioprotection against a more physiological dose of radiation. The Zn^2+-chelates tested were Zn-NAC, Zn-captopril, Zn-2-propylthiazolidine-4-carboxylic acid (Zn-PTCA), and Zn-penacillamine. U937 cells were exposed to a Zn^2+-chelate (10 μM), irradiated with 4 Gy, and DNA fragmentation and apoptosis were measured using a single-cell gel electrophoresis assay (also known as Comet assay) 24 hr after irradiation. Alkaline or neutral Comet assays were performed using CometAssay™ kits from Trevigen (Gaithersburg, MC) according to the manufacturer's instructions. The slides were analyzed under an epifluorescense microscope using the Comet assay image analysis software (CometScore; TriTek, Sumerduck, Va.).

Series [6] has as its system U937 cells. The series is described as follows: Radiation-induced DNA fragmentation in U937 cells, TUNEL assay. It counts as cell-based, human. Conditions: added before 50 Gy; TUNEL 24 hr later. As to the method: Female CD-1 mice (n=4) were irradiated with an 8 Gy dose and apoptotic endonuclease-mediated DNA fragmentation was measured in different organs 40 hours after irradiation. For this, tissue sections were subjected to terminal deoxynucleotidyl transferase mediated dUTP nick end labeling (TUNEL) staining with the In Situ Cell Death Detection Kit from Roche Diagnostics (Indianapolis, Ind.). After washing and counterstaining with 4,6-diamidino-2-phenylindole (DAPI) sections were mounted under coverslips using the Antifade kit (Molecular Probes; Eugene, Oreg.) and analyzed under an Axioskop-2 mot plus microscope (Carl Zeiss, Gottingen Germany) with green filter set #31001, red filter set #11010v2 and blue filter set #31000 from Chroma Technology Corp. (Rockingham, Vt.). Images and acquisitions were performed using digital camera AxioCam MRm (Carl Zeiss) and software Axiovision 3.1 (Carl Zeiss).
The ability of the Zn^2+-chelates to inhibit radiation-induced DNA fragmentation was also examined. U937 cells were exposed to amifostine (as a positive control) or Zn^2+—N-acetylcysteine (Zn-NAC), irradiated as described above, and DNA fragmentation and cell death were measured 24 hr later using a TUNEL assay, essentially as described in Example 1.

The mark [7] stands for this setting: compound added before 50 Gy, Zn^2+-chelate 1-20 μM, PI assay 24 hr later.

Like-named read-outs stand apart in the source and are kept apart here.

For `C[C@H](CS)C(=O)N1CCC[C@H]1C(=O)O` [Captopril], the “TEAC value, Ligand” value in series [1] stood at 0.90.
As to `NCCS` [Cysteamine], the “TEAC value, Ligand” value in series [1] was 0.40. Besides, the Radiation-induced cell death entry in series [2] (setting [7]) was “inhibition”.
For `N[C@@H](CS)C(=O)O` [Cysteine], the “TEAC value, Ligand” value in series [1] was 0.43. Also, the Radioprotection / cytoprotection entry in series [2] (50 Gy) is on record as “not cytoprotective”.
As for `CC(C)c1cc(C(=O)O)c(O)c(C(C)C)c1` [DIPS, 3,5-diisopropylsalicylic acid], the “Inhibition of serum DNase activity” value in series [3] was “no effect”. The “Inhibition of DNase I activity” value in series [4] is listed as “no effect”.
On to `CC(S)C(=O)NCC(=O)O` (stereo not drawn) [MPG, N-(2-mercaptopropionyl)glycine], for which, in series [1], the “TEAC value, Ligand” value is reported as 0.53.
On to `CC(=O)N[C@@H](CS)C(=O)O` [NAC, N-Acetylcysteine], for which the “TEAC value, Ligand” value in series [1] was 0.88. In addition, the Radioprotection / cytoprotection result in series [2] (50 Gy) was “not cytoprotective”.
For the molecule `CC(C)(S)[C@@H](N)C(=O)O` [Penicillamine], in series [1], the “Antioxidant activity in TEAC assay” value was “strongest antioxidants” and the “TEAC value, Ligand” value was found to be 1.54.
As for `[Zn+2]` [Unchelated Zn^2+], the “Antioxidant activity in TEAC assay” value in series [1] is listed as “no activity”.
Turning to `CCCC1NC(C(=O)O)CS1.[Zn]` (stereo not drawn) [Zn-PTCA, zinc-2-n-propylthiazolidine-4-carboxylic acid], the “Protection against radiation injury” value with human U937 cells is on record as “protected”.
As for `O=C([O-])[C@H](O)[C@@H](O)[C@H](O)[C@H](O)CO.O=C([O-])[C@H](O)[C@@H](O)[C@H](O)[C@H](O)CO.[Zn+2]` [Zn-gluconate], the “Inhibition of serum DNase activity” value in series [3] is listed as “inhibited”. In addition, the “Inhibition of DNase I activity” value in series [4] was “inhibited”.
On to `NCC(=O)[O-].NCC(=O)[O-].[Zn+2]` [Zn-glycinate], for which the “Inhibition of serum DNase activity” value in series [3] is “inhibited”. In addition, the “Inhibition of DNase I activity” value in series [4] is recorded as “inhibited”.
Take `[Cl-].[Cl-].[Zn+2]` [ZnCl2]: in series [3], the “Inhibition of serum DNase activity” value is given as “inhibition”. Further, in series [2] (50 Gy), the Radioprotection / cytoprotection result was “did not provide any radioprotection”. In addition, the Cytotoxicity entry in series [2] (U937 cells, 0-100 μM, 50 Gy) is on record as “rather cytotoxic”. In series [4], the “Inhibition of DNase I activity” value is “inhibition”.
For `NCCCNCCSP(=O)(O)O` [amifostine, Amifostine], in the series on U937 cells [5], the “Visual comets (DNA degradation)” value is listed as “absent”. Further, the “Radiation-induced DNA fragmentation” value with U937 cells [6] was “inhibited”. Besides, the Radiation-induced cell death result in series [2] (setting [7]) is listed as “inhibition”.
With `O=C(O)[C@H](O)[C@@H](O)[C@H](O)[C@H](O)CO` [gluconic acid], the “Inhibition of serum DNase activity” value in series [3] is given as “no effect”. The “Inhibition of DNase I activity” value in series [4] is given as “no effect”.
For `NCC(=O)O` [glycine], in series [3], the “Inhibition of serum DNase activity” value is “no effect”. Also, in series [4], the “Inhibition of DNase I activity” value was “no effect”.
Zn^2+-Cysteamine [Zn-Cysteamine]: the “TEAC value, Chelate” value in series [1] was found to be 0.87. For the same molecule, the “Inhibition of cell death compared with that induced by cysteamine or amifostine” value in series [2] (added before 50 Gy, PI assay) is listed as “better”. In series [2] (setting [7]), the Radiation-induced cell death entry is given as “inhibited”.
With Zn^2+-Cysteine [Zn-Cysteine], in series [1], the “TEAC value, Chelate” value is on record as 0.65. Moreover, in series [2], the Radiation-induced cell death result is listed as “inhibited”. The Radioprotection / cytoprotection result in series [2] (50 Gy) was “significant cytoprotection”.
As to “Zn—N-(2-mercaptopropionyl)glycine [Zn-MPG]”, the “TEAC value, Chelate” value in series [1] was 0.97. The Radiation-induced cell death entry in series [2] (setting [7]) was “inhibited”.
With zinc-captopril [Zn-Captopril], the “TEAC value, Chelate” value in series [1] turned out to be 0.90. Also, the “Protection against radiation injury” value with human U937 cells is given as “protected”.
zinc-penicillamine [Zn-Penicillamine]: in series [1], the “Antioxidant activity in TEAC assay” value is “strongest antioxidants” and the “TEAC value, Chelate” value turned out to be 2.05. Also, in the series with human U937 cells, the “Protection against radiation injury” value was “protected”.
